Measurements from US20170290854A1, “COMPOSITIONS AND METHODS FOR TREATING AND PREVENTING BACTERIAL INFECTIONS” (K10 Technologies, Inc., priority 2014, published 2017).

Key:
Test in all cases: MIC assay (Experiments II)
Type in all cases: cell-based
[1] = test system: Streptococcus mutans ATCC 31341; conditions: ATCC31341, S. mutans ATCC 31341, 24 hours, read-out: Minimal inhibitory concentration
Protocol: (§1) A test sample of water containing water clusters at a concentration of approximately 150 million water clusters per drop of water, with an average water droplet size of 500 microns in diameter, was stored at room temperature until required. The sample of water was prepared according to the methods described in S. Y. Lo et al., Evidence for the existence of stable-water-clusters at room temperature and normal pressure. Physics Letters A (2009)). Linezolid diluted in dimethyl sulfoxide was used as a control.
(§2) The test sample of water containing water clusters was added to the first well of a 96-well plate. 2-fold dilutions were performed into all of the wells of that row containing cation-adjusted Mueller-Hinton Broth (CA-MHB) with 5% lysed horse blood except for the last well, which was used as a control without any testing agent. This was repeated in Brain Heart Infusion (BHI) broth. The Linezolid control followed a similar protocol but was diluted to 8 μg/mL in the first well, followed by 2-fold serial dilutions into both CA-MHB with 5% lysed horse blood and BHI broth.
(§3) Streptococcus mutans ATCC 31341, Streptococcus pneumonia ATCC 49619, and Streptococcus pyogenes ATCC 51339 were obtained from the American Type Culture Collection (Manassas, Va.). All strains were maintained as frozen glycerol stocks at −80° C. Working stocks were prepared by streaking bacteria onto Sheep Blood Agar plates, growing at 37° C. with 5% CO2 for 24 hours and suspending isolated colonies in 3 mL of 0.9% sterile saline to approximately 1×10^8 CFU/mL.
(§4) Bacterial working stocks were diluted into appropriate liquid media for a final inocula of about 5×10^6 CFU/mL. CA-MHB with 5% lysed horse blood was used for all the Streptococcus spp. While BHI broth was also used for S. mutans. 10 μL of stock suspension was added to each well of a 96-well MIC plate treated with the test sample of water containing water clusters. […] The plates were incubated at 35° C. with 5% CO2 for a full 24 hours before reading.

[2] = test system: Streptococcus pyogenes ATCC 51339; conditions: ATCC51339, S. pyogenes ATCC 51339, 24 hours, read-out: Minimal inhibitory concentration
Protocol: as §1, §2, §3, §4

[3] = test system: Streptococcus pneumonia ATCC 49619; conditions: Streptococcus pneumoniae, ATCC49619; S. pneumonia ATCC 49619; 24 hours; read-out: Minimal inhibitory concentration
Protocol: as §1, §2, §3, §4

Measured: MIC

CC(=O)NC[C@H]1CN(c2ccc(N3CCOCC3)c(F)c2)C(=O)O1 [Linezolid]
1 mg/L: [1] | [2] | [3]
